Measured values: ChEMBL document CHEMBL2380208, “Novel quinoline derivatives as inhibitors of bacterial DNA gyrase and topoisomerase IV” (Bioorg Med Chem Lett, 2013)
pIC50: −log10 of the molar value. In brackets after ≈: the same amount, converted by molar mass.

Assays:
Staphylococcus aureus [1] = assay: Antibacterial activity against Staphylococcus aureus 1146; type: functional
DNA gyrase = DNA gyrase (Staphylococcus aureus, UniProt P0A0K8+P20831); assay: Inhibition of Staphylococcus aureus DNA gyrase; type: protein-complex assay
[2] = Inhibition of Staphylococcus aureus DNA topoisomerase 4
Staphylococcus aureus [3] = assay: Antibacterial activity against fluoroquinolone-resistant Staphylococcus aureus 1095; type: functional
Staphylococcus aureus [4] = assay: Antibacterial activity against fluoroquinolone-resistant Staphylococcus aureus harboring DNA gyrase M121K mutant; type: functional
Staphylococcus aureus [5] = assay: Antibacterial activity against fluoroquinolone-resistant Staphylococcus aureus harboring DNA gyrase D83N mutant; type: functional

| Structure (SMILES) | MIC (Staphylococcus aureus [1]) [µg/mL] | pIC50 (DNA gyrase) | pIC50 [2] | MIC (Staphylococcus aureus [3]) [µg/mL] | MIC (Staphylococcus aureus [4]) [µg/mL] | MIC (Staphylococcus aureus [5]) [µg/mL] |
| --- | --- | --- | --- | --- | --- | --- |
| COc1ccc2nccc([C@@H](O)CC[C@@H]3CCN(C4CC(c5ccncn5)C4)C[C@@H]3C(=O)O)c2c1 (stereo partly specified) | 64 (≈ 134 µM) | 4.72 | 3.92 | > 64 | – | – |
| COc1ccc2nccc([C@@H](O)CC[C@@H]3CCN(C4CC(c5cc(F)ccc5C(F)(F)F)C4)C[C@@H]3C(=O)O)c2c1 (stereo partly specified) | 0.25 (≈ 0.446 µM) | 5.03 | 4.22 | 0.5 (≈ 0.892 µM) | 32 (≈ 57.1 µM) | 16 (≈ 28.5 µM) |
| COc1ccc2nccc([C@@H](O)CC[C@@H]3CCN(C4CC(c5ccno5)C4)C[C@@H]3C(=O)O)c2c1 (stereo partly specified) | 2 (≈ 4.3 µM) | 5.50 | 4.22 | 8 (≈ 17.2 µM) | – | – |
| COc1ccc2nccc([C@@H](O)CC[C@@H]3CCN(C4CC(c5ccnc(C)n5)C4)C[C@@H]3C(=O)O)c2c1 (stereo partly specified) | > 64 | 4.30 | < 3.92 | > 64 | – | – |
| COc1ccc2nccc([C@@H](O)CC[C@@H]3CCN(C4CC(c5ccn(C)n5)C4)C[C@@H]3C(=O)O)c2c1 (stereo partly specified) | > 64 | 4.72 | < 3.92 | > 64 | – | – |
| COc1ccc2nccc([C@@H](O)CC[C@@H]3CCN(C4CC(c5ccn[nH]5)C4)C[C@@H]3C(=O)O)c2c1 (stereo partly specified) | > 64 | < 4.60 | < 3.92 | > 64 | – | – |
| COc1ccc2nccc([C@@H](O)CC[C@@H]3CCN(C4CC(c5ccc(-c6ccccc6)cc5)C4)C[C@@H]3C(=O)O)c2c1 (stereo partly specified) | > 64 | < 4.30 | 3.92 | > 64 | – | – |
| COc1ccc2nccc([C@@H](O)CC[C@@H]3CCN(C4CC(c5cccc(F)c5C)C4)C[C@@H]3C(=O)O)c2c1 (stereo partly specified) | – | 4.60 | < 3.92 | 0.5 (≈ 0.987 µM) | > 64 | > 64 |
| COc1ccc(F)c(C2CC(N3CC[C@@H](CC[C@H](O)c4ccnc5ccc(OC)cc45)[C@@H](C(=O)O)C3)C2)c1 (stereo partly specified) | – | 4.30 | < 3.92 | 4 (≈ 7.65 µM) | > 64 | > 64 |
| COc1ccc2nccc([C@@H](O)CC[C@@H]3CCN(C4CC(c5c(F)cccc5Cl)C4)C[C@@H]3C(=O)O)c2c1 (stereo partly specified) | – | 5.33 | 4.22 | – | 32 (≈ 60.7 µM) | 64 (≈ 121 µM) |
| COc1ccc2nccc([C@@H](O)CC[C@@H]3CCN(C4CC(c5cc(C(F)(F)F)ccc5F)C4)C[C@@H]3C(=O)O)c2c1 (stereo partly specified) | – | 4.60 | < 4.00 | 4 (≈ 7.14 µM) | – | – |
| COc1ccc2nccc([C@@H](O)CC[C@@H]3CCN(C4CC(c5c(F)ccc(Cl)c5F)C4)C[C@@H]3C(=O)O)c2c1 (stereo partly specified) | – | 5.50 | 4.60 | 0.25 (≈ 0.459 µM) | > 64 | > 64 |
| COc1ccc2nccc([C@@H](O)CC[C@@H]3CCN(C4CC(c5ccc(Cl)cc5F)C4)C[C@@H]3C(=O)O)c2c1 (stereo partly specified) | – | 5.20 | < 4.00 | 1 (≈ 1.9 µM) | > 64 | > 64 |
| COc1ccc2nccc([C@@H](O)CC[C@@H]3CCN(C4CC(c5c(F)cc(F)cc5F)C4)C[C@@H]3C(=O)O)c2c1 (stereo partly specified) | – | 5.20 | 3.92 | 0.5 (≈ 0.946 µM) | > 64 | > 64 |
| COc1ccc2nccc([C@@H](O)CC[C@@H]3CCN(C4CC(c5cc(C)ccc5F)C4)C[C@@H]3C(=O)O)c2c1 (stereo partly specified) | – | 5.81 | 4.12 | – | > 64 | > 64 |
| COc1ccc2nccc([C@@H](O)CC[C@@H]3CCN(C4CC(c5cccc(Cl)c5F)C4)C[C@@H]3C(=O)O)c2c1 (stereo partly specified) | – | 5.62 | 4.12 | ≤ 0.0625 | > 64 | > 64 |
| COc1ccc2nccc([C@@H](O)CC[C@@H]3CCN(C4CC(c5cc(F)c(F)cc5F)C4)C[C@@H]3C(=O)O)c2c1 (stereo partly specified) | ≤ 0.0625 | 5.81 | 4.43 | – | 64 (≈ 121 µM) | 32 (≈ 60.5 µM) |
| COc1ccc2nccc([C@@H](O)CC[C@@H]3CCN(C4CC(c5cccc(C(F)(F)F)c5F)C4)C[C@@H]3C(=O)O)c2c1 (stereo partly specified) | – | 5.20 | 3.70 | 0.5 (≈ 0.892 µM) | > 64 | – |
| COc1ccc2nccc([C@@H](O)CC[C@@H]3CCN(C4CC(c5ccc(C(F)(F)F)cc5F)C4)C[C@@H]3C(=O)O)c2c1 (stereo partly specified) | – | 5.20 | < 3.70 | 4 (≈ 7.14 µM) | – | > 64 |
| COc1ccc2nccc([C@@H](O)CC[C@@H]3CCN(C4CC(c5ccc(Br)cc5F)C4)C[C@@H]3C(=O)O)c2c1 (stereo partly specified) | – | 5.20 | < 3.70 | 8 (≈ 14 µM) | > 64 | > 64 |
| COc1ccc2nccc([C@@H](O)CC[C@@H]3CCN(C4CC(c5cccc(OC)c5F)C4)C[C@@H]3C(=O)O)c2c1 (stereo partly specified) | – | 4.72 | < 3.70 | 64 (≈ 122 µM) | – | > 64 |
| COc1ccc2nccc([C@@H](O)CC[C@@H]3CCN(C4CC(c5ccc(F)c(C#N)c5)C4)C[C@@H]3C(=O)O)c2c1 (stereo partly specified) | – | 5.50 | < 3.70 | > 64 | – | – |

| Structure (SMILES) | MIC (Staphylococcus aureus [1]) [µg/mL] | pIC50 (DNA gyrase) | pIC50 [2] | MIC (Staphylococcus aureus [3]) [µg/mL] | MIC (Staphylococcus aureus [4]) [µg/mL] | MIC (Staphylococcus aureus [5]) [µg/mL] |
| --- | --- | --- | --- | --- | --- | --- |
| COc1ccc(C2CC(N3CC[C@@H](CC[C@H](O)c4ccnc5ccc(OC)cc45)[C@@H](C(=O)O)C3)C2)c(F)c1 (stereo partly specified) | – | 4.30 | < 3.62 | 64 (≈ 122 µM) | – | > 64 |
| COc1ccc2nccc([C@@H](O)CC[C@@H]3CCN(C4CC(c5cccc(C#N)c5)C4)C[C@@H]3C(=O)O)c2c1 (stereo partly specified) | – | 5.03 | < 3.70 | 16 (≈ 32 µM) | – | – |
| COc1ccc2nccc([C@@H](O)CC[C@@H]3CCN(C4CC(c5ccc(C#N)cc5)C4)C[C@@H]3C(=O)O)c2c1 (stereo partly specified) | > 64 | < 4.30 | 3.62 | > 64 | – | – |
| COc1ccc2nccc([C@@H](O)CC[C@@H]3CCN(C4CC(c5cc(F)c(OC)cc5F)C4)C[C@@H]3C(=O)O)c2c1 (stereo partly specified) | 32 (≈ 59.2 µM) | 4.30 | 3.62 | > 64 | > 64 | > 64 |
| COc1ccc2nccc([C@@H](O)CC[C@@H]3CCN(C4CC(c5cc(Cl)ccc5F)C4)C[C@@H]3C(=O)O)c2c1 (stereo partly specified) | ≤ 0.0625 | 5.81 | 4.48 | ≤ 0.0625 | 64 (≈ 121 µM) | 64 (≈ 121 µM) |
| COc1ccc2nccc([C@@H](O)CC[C@@H]3CCN(C4CC(c5ccccc5OC)C4)C[C@@H]3C(=O)O)c2c1 (stereo partly specified) | 0.5 (≈ 0.991 µM) | 5.20 | < 3.62 | 1 (≈ 1.98 µM) | – | – |
| COc1ccc2nccc([C@@H](O)CC[C@@H]3CCN(C4CC(c5cccc(F)c5F)C4)C[C@@H]3C(=O)O)c2c1 (stereo partly specified) | ≤ 0.0625 | 5.81 | 4.52 | < 0.0625 | 32 (≈ 62.7 µM) | 32 (≈ 62.7 µM) |
| COc1ccc2nccc([C@@H](O)CC[C@@H]3CCN(C4CC(c5c(F)cccc5OC)C4)C[C@@H]3C(=O)O)c2c1 (stereo partly specified) | 0.25 (≈ 0.478 µM) | 4.90 | 4.00 | 2 (≈ 3.83 µM) | – | – |
| COc1ccc2nccc([C@@H](O)CC[C@@H]3CCN(C4CC(c5c(F)cccc5C(F)(F)F)C4)C[C@@H]3C(=O)O)c2c1 (stereo partly specified) | 0.5 (≈ 0.892 µM) | 4.72 | < 4.00 | 2 (≈ 3.57 µM) | – | – |
| COc1ccc2nccc([C@@H](O)CC[C@@H]3CCN(C4CC(c5cc(F)ccc5OC)C4)C[C@@H]3C(=O)O)c2c1 (stereo partly specified) | 0.5 (≈ 0.957 µM) | 4.90 | 4.43 | 4 (≈ 7.65 µM) | – | – |
| COc1ccc2nccc([C@@H](O)CC[C@@H]3CCN(C4CC(c5cc(Br)ccc5F)C4)C[C@@H]3C(=O)O)c2c1 (stereo partly specified) | ≤ 0.0625 | 5.50 | 4.30 | 0.25 (≈ 0.437 µM) | – | – |
| COc1ccc2nccc([C@@H](O)CC[C@@H]3CCN(C4CC(c5ccccc5C(F)(F)F)C4)C[C@@H]3C(=O)O)c2c1 (stereo partly specified) | 0.125 (≈ 0.23 µM) | 5.81 | 4.22 | 0.25 (≈ 0.461 µM) | – | – |
| COc1ccc2nccc([C@@H](O)CC[C@@H]3CCN(C4CC(c5cc(F)ccc5C)C4)C[C@@H]3C(=O)O)c2c1 (stereo partly specified) | 0.125 (≈ 0.247 µM) | 5.64 | 4.35 | 0.5 (≈ 0.987 µM) | – | – |
| COc1ccc2nccc([C@@H](O)CC[C@@H]3CCN(C4CC(c5c(OC)ccc(F)c5F)C4)C[C@@H]3C(=O)O)c2c1 (stereo partly specified) | 0.25 (≈ 0.462 µM) | 5.81 | 4.35 | 2 (≈ 3.7 µM) | > 64 | 64 (≈ 118 µM) |
| COc1ccc2nccc([C@@H](O)CC[C@@H]3CCN(C4CC(c5c(F)ccc(F)c5OC)C4)C[C@@H]3C(=O)O)c2c1 (stereo partly specified) | ≤ 0.0625 | 5.50 | 4.60 | ≤ 0.0625 | > 64 | 64 (≈ 118 µM) |
| COc1ccc2nccc([C@@H](O)CC[C@@H]3CCN(C4CC(c5cc(F)cc(F)c5OC)C4)C[C@@H]3C(=O)O)c2c1 (stereo partly specified) | 0.5 (≈ 0.925 µM) | 5.20 | 4.22 | 2 (≈ 3.7 µM) | 64 (≈ 118 µM) | 32 (≈ 59.2 µM) |
| COc1ccc2nccc([C@@H](O)CC[C@@H]3CCN(C4CC(c5cc(C#N)ccc5F)C4)C[C@@H]3C(=O)O)c2c1 (stereo partly specified) | 2 (≈ 3.86 µM) | 5.03 | 3.92 | 8 (≈ 15.5 µM) | – | 64 (≈ 124 µM) |
| COc1ccc2nccc([C@@H](O)CC[C@@H]3CCN(C4CC(c5ccccc5SC)C4)C[C@@H]3C(=O)O)c2c1 (stereo partly specified) | 0.25 (≈ 0.48 µM) | 5.50 | 4.30 | 2 (≈ 3.84 µM) | – | 64 (≈ 123 µM) |
| COc1ccc2nccc([C@@H](O)CC[C@@H]3CCN(C4CC(c5cccc(SC)c5)C4)C[C@@H]3C(=O)O)c2c1 (stereo partly specified) | 2 (≈ 3.84 µM) | 5.33 | 3.82 | 8 (≈ 15.4 µM) | – | 64 (≈ 123 µM) |
| COc1ccc2nccc([C@@H](O)CC[C@@H]3CCN(C4CC(c5cc(SC)ccc5F)C4)C[C@@H]3C(=O)O)c2c1 (stereo partly specified) | 0.25 (≈ 0.464 µM) | 5.50 | 4.30 | 2 (≈ 3.71 µM) | – | 64 (≈ 119 µM) |
| COc1ccc2nccc([C@@H](O)CC[C@@H]3CCN(C/C=C/c4ccccc4)C[C@@H]3C(=O)O)c2c1 | 0.5 (≈ 1.09 µM) | 5.33 | < 3.70 | 1 (≈ 2.17 µM) | > 64 | > 64 |
| COc1ccc2nccc([C@@H](O)CC[C@@H]3CCN(C4CC(c5ncc(C)o5)C4)C[C@@H]3C(=O)O)c2c1 (stereo partly specified) | 2 (≈ 4.17 µM) | 5.20 | < 4.00 | 8 (≈ 16.7 µM) | – | – |
